What was measured:
[1] = 101 kPa, Liquid; for viscosity: Anton Paar Stabinger viscometer
[2] = xn = mol fraction of the nth substance listed; details: 101 kPa, Liquid, x2 = 0; for viscosity: Anton Paar Stabinger viscometer

c1ccccc1 [benzene]
[1]
Details	mass density [kg/m3]	speed of sound [m/s]	viscosity [mPa·s]
288.15 K	884.184	1347.2	0.709
293.15 K	877.43	1323.3	0.648
298.15 K	873.58	1299.7	0.604
303.15 K	868.174	1276.4	0.571

Cc1ccc(C)cc1 [1,4-dimethylbenzene]
[1]
Details	mass density [kg/m3]	speed of sound [m/s]	viscosity [mPa·s]
288.15 K	865.253	1352	0.701
293.15 K	860.917	1331.1	0.65
298.15 K	856.617	1310	0.611
303.15 K	852.255	1289.7	0.576

Cc1ccccc1C [1,2-dimethylbenzene] + COc1ccccc1
[2]
Details	mass density [kg/m3]	speed of sound [m/s]	viscosity [mPa·s]
288.15 K	883.285	1390.3	0.871
293.15 K	879.083	1369.7	0.81
298.15 K	875.532	1349.4	0.756
303.15 K	870.726	1328.3	0.708

c1ccccc1 [benzene] + COc1ccccc1
[2]
Details	mass density [kg/m3]	speed of sound [m/s]	viscosity [mPa·s]
288.15 K	884.184	1347.2	0.709
293.15 K	877.43	1323.3	0.648
298.15 K	873.58	1299.7	0.604
303.15 K	868.174	1276.4	0.571

Cc1cc(C)cc(C)c1 [1,3,5-trimethylbenzene]
[1]
Details	mass density [kg/m3]	speed of sound [m/s]	viscosity [mPa·s]
288.15 K	869.169	1377.5	0.754
293.15 K	865.072	1357	0.705
298.15 K	861.062	1336.9	0.661
303.15 K	856.95	1316.8	0.621

Cc1ccccc1 [toluene]
[1]
Details	mass density [kg/m3]	speed of sound [m/s]	viscosity [mPa·s]
288.15 K	871.412	1350	0.63
293.15 K	866.874	1327.2	0.588
298.15 K	862.2	1305.4	0.556
303.15 K	857.464	1283.8	0.523

Cc1ccccc1C [1,2-dimethylbenzene]
[1]
Details	mass density [kg/m3]	speed of sound [m/s]	viscosity [mPa·s]
288.15 K	883.285	1390.3	0.871
293.15 K	879.083	1369.7	0.81
298.15 K	875.532	1349.4	0.756
303.15 K	870.726	1328.3	0.708

— the NIST ThermoML archive (doi:10.1021/je060170c)
